Assay in all cases: two-electrode voltage clamp in Xenopus oocytes
Common to all, as to assay type: cell-based
A general note: In two-electrode clamp one electrode senses voltage and the other passes current.

One assay has as its target T1, SmGluCl-1 (Schistosoma mansoni, UniProt G4VR43).
T1 construct: full-length subunit co-expressed 1:1 with SmGluCl-2.1 (heteromer; no functional SmGluCl-1 homomer); with SmGluCl-2.1

For the next assay, the target named is T2, SmGluCl-3 (Schistosoma mansoni, UniProt T2C5W6).
T2 construct: gene GluCl; full-length subunit, homomeric receptor (KC861384)
T2 sequence (T2C5W6 entry or part of it): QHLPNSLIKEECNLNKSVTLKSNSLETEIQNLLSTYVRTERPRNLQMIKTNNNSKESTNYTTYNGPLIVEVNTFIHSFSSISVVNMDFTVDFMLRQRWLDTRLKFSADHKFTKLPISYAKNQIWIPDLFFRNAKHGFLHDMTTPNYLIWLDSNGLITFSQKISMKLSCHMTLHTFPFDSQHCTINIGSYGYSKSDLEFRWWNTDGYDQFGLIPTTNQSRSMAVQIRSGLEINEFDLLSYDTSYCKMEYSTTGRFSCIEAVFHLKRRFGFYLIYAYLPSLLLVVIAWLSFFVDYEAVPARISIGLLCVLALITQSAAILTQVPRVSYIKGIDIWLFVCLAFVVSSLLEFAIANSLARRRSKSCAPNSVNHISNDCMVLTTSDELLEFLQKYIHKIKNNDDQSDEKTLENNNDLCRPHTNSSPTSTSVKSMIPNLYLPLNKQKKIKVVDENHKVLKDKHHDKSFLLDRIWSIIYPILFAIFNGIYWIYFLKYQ

A further assay has as its target T3, SmGluCl-2.1 (SmGluCl-2) (Schistosoma mansoni, UniProt T2C5A6).
T3 construct: gene GluCl; full-length subunit isoform 1, homomeric receptor (KC861382)

SMILES strings stand for the structures.

T1 sequence (T2C5A6 entry or part of it): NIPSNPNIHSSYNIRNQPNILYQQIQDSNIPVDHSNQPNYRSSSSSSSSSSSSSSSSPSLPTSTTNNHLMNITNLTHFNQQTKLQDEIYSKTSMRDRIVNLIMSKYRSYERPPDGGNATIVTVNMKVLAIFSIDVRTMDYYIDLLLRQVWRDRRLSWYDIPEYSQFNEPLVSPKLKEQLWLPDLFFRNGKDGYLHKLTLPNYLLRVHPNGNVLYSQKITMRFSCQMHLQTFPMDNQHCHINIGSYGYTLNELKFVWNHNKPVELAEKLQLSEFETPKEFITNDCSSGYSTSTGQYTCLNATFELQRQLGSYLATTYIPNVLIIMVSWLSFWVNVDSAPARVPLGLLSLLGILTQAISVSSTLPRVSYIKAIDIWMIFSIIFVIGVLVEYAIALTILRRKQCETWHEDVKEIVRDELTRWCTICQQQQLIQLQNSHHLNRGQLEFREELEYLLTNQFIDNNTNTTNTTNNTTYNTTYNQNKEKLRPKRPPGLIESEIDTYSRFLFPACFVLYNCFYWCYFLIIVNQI
T1 sequence (G4VR43 entry or part of it): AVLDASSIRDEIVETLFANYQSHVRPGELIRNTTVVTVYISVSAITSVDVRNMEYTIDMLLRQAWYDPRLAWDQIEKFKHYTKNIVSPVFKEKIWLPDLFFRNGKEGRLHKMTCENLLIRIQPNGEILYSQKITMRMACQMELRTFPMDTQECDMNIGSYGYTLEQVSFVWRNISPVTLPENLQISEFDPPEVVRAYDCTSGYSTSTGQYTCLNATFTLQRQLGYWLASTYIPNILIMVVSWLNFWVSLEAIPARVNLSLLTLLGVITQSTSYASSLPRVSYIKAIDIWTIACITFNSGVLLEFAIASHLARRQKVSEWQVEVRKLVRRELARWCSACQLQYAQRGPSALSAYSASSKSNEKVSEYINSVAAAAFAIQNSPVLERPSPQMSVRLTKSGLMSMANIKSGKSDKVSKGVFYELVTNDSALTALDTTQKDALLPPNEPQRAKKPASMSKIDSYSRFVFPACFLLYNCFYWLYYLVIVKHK
T3 sequence (T2C5A6 entry or part of it): as the sequence (T2C5A6 entry or part of it) above

Broadly, the EC50 is the concentration needed to bring the measured effect to its halfway point. Lower therefore signals an effect from little substance. Regarding `N[C@@H](CCC(=O)O)C(=O)O` [L-glutamate], the EC50 was 26.3 ± 2 µM at SmGluCl-1, 6.9 ± 0.5 µM on SmGluCl-3 and 11.8 ± 0.6 µM on SmGluCl-2.1 (SmGluCl-2).

(Values after publication PMC3757052, “Molecular Cloning and Characterization of Novel Glutamate-Gated Chloride Channel Subunits from Schistosoma mansoni” (PLoS Pathogens, 2013).)
